Laboratory results as given in ChEMBL document CHEMBL6134788, “Development of naphthalimide hydrazide derivatives as potent antibacterial agents against carbapenem-resistant A. baumannii” (RSC Med Chem, 2024).
In brackets after ≈: the same amount, converted by molar mass. Activity calls are given as the source filed them. The calls are words filed in the database; no cut-off is given here.

Experiments:
Acinetobacter baumannii [1] = assay: Antibacterial activity against multi-drug resistant Acinetobacter baumannii NR-17777 assessed as inhibition of bacterial growth incubated for 16 to 18 hrs by CLSI protocol based method; assay type: functional; conditions: time 16-18 hrs, read-out: MIC100
Acinetobacter baumannii [2] = assay: Synergistic antibacterial activity against carbapenem-resistant Acinetobacter baumannii BAA 1605 assessed as reduction in bacterial growth measured within 24 hrs in presence of tobramycin by time-kill kinetics analysis; assay type: functional, organism-based
Acinetobacter baumannii [3] = assay: Antibacterial activity against carbapenem-resistant Acinetobacter baumannii BAA 1605 assessed as amikacin MIC by measuring fractional inhibitory concentration incubated 24 hrs by checkerboard method relative to amikacin alone; assay type: functional
Acinetobacter baumannii [4] = assay: Antibacterial activity against carbapenem-resistant Acinetobacter baumannii BAA 1605 assessed as inhibition of bacterial growth by measuring rifampicin MIC incubated 24 hrs by checkerboard method; assay type: functional
Pseudomonas aeruginosa = assay: Antibacterial activity against Pseudomonas aeruginosa ATCC 27853 assessed as inhibition of bacterial growth incubated for 16 to 18 hrs by CLSI protocol based method; assay type: functional; conditions: time 16-18 hrs, read-out: MIC100
Acinetobacter baumannii [5] = assay: Antibacterial activity against multi-drug resistant Acinetobacter baumannii clinical isolate 2 assessed as inhibition of bacterial growth incubated for 16 to 18 hrs by CLSI protocol based method; assay type: functional; conditions: time 16-18 hrs, read-out: MIC100
Acinetobacter baumannii [6] = assay: Antibacterial activity against multi-drug resistant Acinetobacter baumannii clinical isolate 5 assessed as inhibition of bacterial growth incubated for 16 to 18 hrs by CLSI protocol based method; assay type: functional; conditions: time 16-18 hrs, read-out: MIC100
Acinetobacter baumannii [7] = assay: Antibacterial activity against multi-drug resistant Acinetobacter baumannii clinical isolate 3 assessed as inhibition of bacterial growth incubated for 16 to 18 hrs by CLSI protocol based method; assay type: functional; conditions: time 16-18 hrs, read-out: MIC100
Acinetobacter baumannii [8] = assay: Antibacterial activity against multi-drug resistant Acinetobacter baumannii clinical isolate 10 assessed as inhibition of bacterial growth incubated for 16 to 18 hrs by CLSI protocol based method; assay type: functional; conditions: time 16-18 hrs, read-out: MIC100
Acinetobacter baumannii [9] = assay: Antibacterial activity against multi-drug resistant Acinetobacter baumannii clinical isolate 12 assessed as inhibition of bacterial growth incubated for 16 to 18 hrs by CLSI protocol based method; assay type: functional; conditions: time 16-18 hrs, read-out: MIC100
Acinetobacter baumannii [10] = assay: Antibacterial activity against carbapenem-resistant Acinetobacter baumannii BAA 1605 assessed as inhibition of bacterial growth incubated 24 hrs in presence of polymyxin B by checkerboard method; assay type: functional
Acinetobacter baumannii [11] = assay: Antibacterial activity against carbapenem-resistant Acinetobacter baumannii BAA 1605 assessed as inhibition of bacterial growth by measuring levofloxacin MIC incubated 24 hrs by checkerboard method; assay type: functional
Acinetobacter baumannii [12] = assay: Antibacterial activity against multi-drug resistant Acinetobacter baumannii 5-032 assessed as inhibition of bacterial growth incubated for 16 to 18 hrs by CLSI protocol based method; assay type: functional; conditions: time 16-18 hrs, read-out: MIC100
Acinetobacter baumannii [13] = assay: Antibacterial activity against multi-drug resistant Acinetobacter baumannii BC-5 assessed as inhibition of bacterial growth incubated for 16 to 18 hrs by CLSI protocol based method; assay type: functional; conditions: time 16-18 hrs, read-out: MIC100
Acinetobacter baumannii [14] = assay: Antibacterial activity against Acinetobacter baumannii ATCC 17978 assessed as inhibition of bacterial growth incubated for 16 to 18 hrs by CLSI protocol based method; assay type: functional; conditions: time 16-18 hrs, read-out: MIC100
Acinetobacter baumannii [15] = assay: Antibacterial activity against multi-drug resistant Acinetobacter baumannii Naval-18 assessed as inhibition of bacterial growth incubated for 16 to 18 hrs by CLSI protocol based method; assay type: functional; conditions: time 16-18 hrs, read-out: MIC100
Acinetobacter baumannii [16] = assay: Antibacterial activity against carbapenem-resistant Acinetobacter baumannii BAA 1605 assessed as inhibition of bacterial growth incubated for 16 to 18 hrs by CLSI protocol based method; assay type: functional; conditions: time 16-18 hrs, read-out: MIC100
Acinetobacter baumannii [17] = assay: Antibacterial activity against multi-drug resistant Acinetobacter baumannii 5-189 assessed as inhibition of bacterial growth incubated for 16 to 18 hrs by CLSI protocol based method; assay type: functional; conditions: time 16-18 hrs, read-out: MIC100
Acinetobacter baumannii [18] = assay: Antibacterial activity against carbapenem-resistant Acinetobacter baumannii BAA 1605 assessed as polymyxin B MIC by measuring fractional inhibitory concentration incubated 24 hrs by checkerboard method relative to polymyxin B alone; assay type: functional
Acinetobacter baumannii [19] = assay: Antibacterial activity against carbapenem-resistant Acinetobacter baumannii BAA 1605 assessed as levofloxacin MIC by measuring fractional inhibitory concentration incubated 24 hrs by checkerboard method relative to levofloxacin alone; assay type: functional
Acinetobacter baumannii [20] = assay: Antibacterial activity against multi-drug resistant Acinetobacter baumannii clinical isolate 6 assessed as inhibition of bacterial growth incubated for 16 to 18 hrs by CLSI protocol based method; assay type: functional; conditions: time 16-18 hrs, read-out: MIC100
Acinetobacter baumannii [21] = assay: Antibacterial activity against multi-drug resistant Acinetobacter baumannii H72721 assessed as inhibition of bacterial growth incubated for 16 to 18 hrs by CLSI protocol based method; assay type: functional; conditions: time 16-18 hrs, read-out: MIC100
Acinetobacter baumannii [22] = assay: Synergistic antibacterial activity against carbapenem-resistant Acinetobacter baumannii BAA 1605 assessed as inhibition of bacterial growth by measuring tobramycin MIC incubated 24 hrs by checkerboard method; assay type: functional
Acinetobacter baumannii [23] = assay: Antibacterial activity against carbapenem-resistant Acinetobacter baumannii BAA 1605 assessed as inhibition of bacterial growth incubated 24 hrs in presence of minocycline by checkerboard method; assay type: functional
Acinetobacter baumannii [24] = assay: Antibacterial activity against multi-drug resistant Acinetobacter baumannii clinical isolate 9 assessed as inhibition of bacterial growth incubated for 16 to 18 hrs by CLSI protocol based method; assay type: functional; conditions: time 16-18 hrs, read-out: MIC100
Acinetobacter baumannii [25] = assay: Antibacterial activity against multi-drug resistant Acinetobacter baumannii clinical isolate 8 assessed as inhibition of bacterial growth incubated for 16 to 18 hrs by CLSI protocol based method; assay type: functional; conditions: time 16-18 hrs, read-out: MIC100
Acinetobacter baumannii [26] = assay: Antibacterial activity against multi-drug resistant Acinetobacter baumannii WL-487 assessed as inhibition of bacterial growth incubated for 16 to 18 hrs by CLSI protocol based method; assay type: functional; conditions: time 16-18 hrs, read-out: MIC100
[27] = Selectivity index, ratio of CC50 for cytotoxicity against African green monkey VERO cells to MIC for antibacterial activity against carbapenem-resistant Acinetobacter baumannii BAA 1605 assessed as inhibition of bacterial growth; assay type: toxicity, cell-based; conditions: read-out: Selectivity Index
Acinetobacter baumannii [28] = assay: Antibacterial activity against carbapenem-resistant Acinetobacter baumannii BAA 1605 assessed as inhibition of bacterial growth by measuring fractional inhibitory concentration incubated 24 hrs in presence of rifampicin by checkerboard method; assay type: functional
Acinetobacter baumannii [29] = assay: Antibacterial activity against multi-drug resistant Acinetobacter baumannii clinical isolate 7 assessed as inhibition of bacterial growth incubated for 16 to 18 hrs by CLSI protocol based method; assay type: functional; conditions: time 16-18 hrs, read-out: MIC100
Acinetobacter baumannii [30] = assay: Antibacterial activity against multi-drug resistant Acinetobacter baumannii 5-109 assessed as inhibition of bacterial growth incubated for 16 to 18 hrs by CLSI protocol based method; assay type: functional; conditions: time 16-18 hrs, read-out: MIC100
Acinetobacter baumannii [31] = assay: Antibacterial activity against carbapenem-resistant Acinetobacter baumannii BAA 1605 assessed as inhibition of bacterial growth by measuring amikacin MIC incubated 24 hrs by checkerboard method; assay type: functional
Acinetobacter baumannii [32] = assay: Antibacterial activity against multi-drug resistant Acinetobacter baumannii 5-143 assessed as inhibition of bacterial growth incubated for 16 to 18 hrs by CLSI protocol based method; assay type: functional; conditions: time 16-18 hrs, read-out: MIC100
Acinetobacter baumannii [33] = assay: Antibacterial activity against multi-drug resistant Acinetobacter baumannii Naval-17 assessed as inhibition of bacterial growth incubated for 16 to 18 hrs by CLSI protocol based method; assay type: functional; conditions: time 16-18 hrs, read-out: MIC100
Escherichia coli = assay: Antibacterial activity against Escherichia coli ATCC 25922 assessed as inhibition of bacterial growth incubated for 16 to 18 hrs by CLSI protocol based method; assay type: functional; conditions: time 16-18 hrs, read-out: MIC100
Acinetobacter baumannii [34] = assay: Synergistic antibacterial activity against carbapenem-resistant Acinetobacter baumannii BAA 1605 assessed as inhibition of bacterial growth by measuring fractional inhibitory concentration incubated 24 hrs in presence of tobramycin by checkerboard method; assay type: functional
Klebsiella pneumoniae = assay: Antibacterial activity against Klebsiella pneumoniae BAA 1705 assessed as inhibition of bacterial growth incubated for 16 to 18 hrs by CLSI protocol based method; assay type: functional; conditions: time 16-18 hrs, read-out: MIC100

O=C(CCN1C(=O)c2cccc3cccc(c23)C1=O)NNc1ccc(Br)cc1
MIC (Acinetobacter baumannii [1]): 0.5 µg/mL (≈ 1.14 µM)
Activity (Acinetobacter baumannii [2]): Active
FIC (Acinetobacter baumannii [3]): 0.5
MIC (Acinetobacter baumannii [4]): 2 µg/mL
MIC (Pseudomonas aeruginosa): > 64 µg/mL
MIC (Acinetobacter baumannii [5]): 0.5 µg/mL (≈ 1.14 µM)
MIC (Acinetobacter baumannii [6]): 1 µg/mL (≈ 2.28 µM)
MIC (Acinetobacter baumannii [7]): 0.25 µg/mL (≈ 0.57 µM)
MIC (Acinetobacter baumannii [8]): 0.5 µg/mL (≈ 1.14 µM)
MIC (Acinetobacter baumannii [9]): 0.5 µg/mL (≈ 1.14 µM)
MIC (Acinetobacter baumannii [10]): 0.25 µg/mL
MIC (Acinetobacter baumannii [11]): 8 µg/mL
MIC (Acinetobacter baumannii [12]): 0.5 µg/mL (≈ 1.14 µM)
MIC (Acinetobacter baumannii [13]): 0.5 µg/mL (≈ 1.14 µM)
MIC (Acinetobacter baumannii [14]): 0.5 µg/mL (≈ 1.14 µM)
MIC (Acinetobacter baumannii [15]): 0.5 µg/mL (≈ 1.14 µM)
MIC (Acinetobacter baumannii [16]): 0.5 µg/mL (≈ 1.14 µM)
MIC (Acinetobacter baumannii [17]): 0.5 µg/mL (≈ 1.14 µM)
FIC (Acinetobacter baumannii [18]): 0.5
FIC (Acinetobacter baumannii [19]): 1
MIC (Acinetobacter baumannii [20]): 0.5 µg/mL (≈ 1.14 µM)
MIC (Acinetobacter baumannii [21]): 0.5 µg/mL (≈ 1.14 µM)
MIC (Acinetobacter baumannii [22]): 1 µg/mL
MIC (Acinetobacter baumannii [23]): 1 µg/mL
MIC (Acinetobacter baumannii [24]): 0.5 µg/mL (≈ 1.14 µM)
MIC (Acinetobacter baumannii [25]): 0.5 µg/mL (≈ 1.14 µM)
MIC (Acinetobacter baumannii [26]): 0.5 µg/mL (≈ 1.14 µM)
selectivity ratio [27]: > 200
FIC (Acinetobacter baumannii [28]): 0.5
MIC (Acinetobacter baumannii [29]): 0.5 µg/mL (≈ 1.14 µM)
MIC (Acinetobacter baumannii [30]): 0.5 µg/mL (≈ 1.14 µM)
MIC (Acinetobacter baumannii [31]): 2 µg/mL
MIC (Acinetobacter baumannii [32]): 0.25 µg/mL (≈ 0.57 µM)
MIC (Acinetobacter baumannii [33]): 1 µg/mL (≈ 2.28 µM)
MIC (Escherichia coli): > 64 µg/mL
FIC (Acinetobacter baumannii [34]): 0.25
MIC (Klebsiella pneumoniae): > 64 µg/mL
